Results: ChEMBL document CHEMBL1149440, “Indol-1-yl acetic acids as peroxisome proliferator-activated receptor agonists: design, synthesis, structural biology, and molecular docking studies” (J Med Chem, 2006)

What was measured:
[1] = target: T1, Peroxisome proliferator-activated receptor alpha (Homo sapiens, UniProt Q07869); assay type: functional, cell-based, Huh-7
T1 sequence (Q07869 whole entry): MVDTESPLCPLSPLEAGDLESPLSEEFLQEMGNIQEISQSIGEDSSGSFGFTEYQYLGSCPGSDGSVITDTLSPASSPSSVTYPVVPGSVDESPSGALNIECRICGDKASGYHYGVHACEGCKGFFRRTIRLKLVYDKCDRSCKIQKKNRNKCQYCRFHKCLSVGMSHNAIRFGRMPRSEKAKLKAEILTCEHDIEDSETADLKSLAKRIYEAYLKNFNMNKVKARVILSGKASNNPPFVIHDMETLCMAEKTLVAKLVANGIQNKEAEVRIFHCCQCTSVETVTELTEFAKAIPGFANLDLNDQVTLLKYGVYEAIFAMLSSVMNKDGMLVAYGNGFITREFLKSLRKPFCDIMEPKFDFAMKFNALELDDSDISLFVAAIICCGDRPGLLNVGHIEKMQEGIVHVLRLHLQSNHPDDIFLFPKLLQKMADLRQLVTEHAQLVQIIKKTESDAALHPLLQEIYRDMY

[2] = target: T1, Peroxisome proliferator-activated receptor alpha
[3] = target: T2, Peroxisome proliferator-activated receptor delta (Homo sapiens, UniProt Q03181)
T2 sequence (Q03181 whole entry): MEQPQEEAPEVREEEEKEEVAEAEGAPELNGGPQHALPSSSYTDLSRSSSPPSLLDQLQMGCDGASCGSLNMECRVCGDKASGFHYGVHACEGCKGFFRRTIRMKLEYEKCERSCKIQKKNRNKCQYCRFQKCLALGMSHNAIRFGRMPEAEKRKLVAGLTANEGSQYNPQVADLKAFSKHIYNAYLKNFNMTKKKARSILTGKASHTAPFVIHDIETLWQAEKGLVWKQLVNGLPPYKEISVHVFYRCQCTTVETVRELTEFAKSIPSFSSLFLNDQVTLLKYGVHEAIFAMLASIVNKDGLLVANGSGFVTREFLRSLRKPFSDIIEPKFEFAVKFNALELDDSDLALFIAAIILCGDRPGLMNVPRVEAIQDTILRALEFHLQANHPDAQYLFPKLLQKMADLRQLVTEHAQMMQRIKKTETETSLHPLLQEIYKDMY

[4] = target: T2, Peroxisome proliferator-activated receptor delta; assay type: functional, cell-based, Huh-7

EC50 [1] | IC50 [2] | IC50 [3] | EC50 [4] | Structure (SMILES)
8 nM | 113 nM |  |  | CCCc1c(OCCCOc2ccc3c(ccn3CC(=O)O)c2)ccc2cc(C(=O)c3ccccc3)ccc12
> 10000 nM | 4490 nM | 2570 nM | > 10000 nM | O=C(O)Cn1ccc2ccc(OCCCOc3ccc4cc(C(=O)c5ccccc5)ccc4c3)cc21
> 10000 nM | 1020 nM | > 10000 nM | > 10000 nM | O=C(O)Cn1ccc2c(OCCCOc3ccc(C(=O)c4ccc(F)cc4)cc3)cccc21
 | 496 nM |  |  | CCCc1c(OCCCOc2ccc3c(ccn3CC(=O)O)c2)ccc2c(C(F)(F)F)noc12
50 nM | 470 nM |  |  | CCCc1cc(C(=O)c2ccc(F)cc2)ccc1OCCCOc1ccc2c(ccn2CC(=O)O)c1
> 10000 nM | > 10000 nM | > 10000 nM | > 10000 nM | O=C(O)Cn1ccc2cc(OCCCOc3ccc(C(=O)c4ccc(F)cc4)cc3)ccc21
270 nM | 484 nM | 4430 nM | 5600 nM | O=C(O)Cn1ccc2cc(OCCCOc3ccc4cc(C(=O)c5ccccc5)ccc4c3)ccc21
765 nM | 116 nM | 3150 nM | 4350 nM | O=C(O)Cn1ccc2ccc(OCCCOc3ccc(C(=O)c4ccc(F)cc4)cc3)cc21
> 10000 nM | 1080 nM | > 10000 nM | > 10000 nM | O=C(O)Cn1ccc2c(OCCCOc3ccc4cc(C(=O)c5ccccc5)ccc4c3)cccc21
2480 nM | 4490 nM | 2400 nM | 4900 nM | CCCc1c(OCCCOc2ccc3ccn(CC(=O)O)c3c2)ccc2cc(C(=O)c3ccccc3)ccc12
> 10000 nM | 1050 nM | 7620 nM | 5290 nM | CCCc1cc(C(=O)c2ccc(F)cc2)ccc1OCCCOc1ccc2ccn(CC(=O)O)c2c1
773 nM | 414 nM | 3260 nM | 4000 nM | CCCc1cc(C(=O)c2ccc(F)cc2)ccc1OCCCOc1cccc2c1ccn2CC(=O)O
19 nM | 578 nM | 5380 nM | > 10000 nM | CCCc1c(OCCCOc2cccc3c2ccn3CC(=O)O)ccc2cc(C(=O)c3ccccc3)ccc12
